Measurements from paper PMC2853575, “Discovery of Selective Inhibitors Against EBNA1 via High Throughput In Silico Virtual Screening” (PLoS ONE, 2010).
“And” between values parts separate entries of the source, which are not always exact repeats. Identical values can stand only once. Like-named read-outs stand apart in the source and are kept apart here.

What was measured:
[1] = test system: EBV genome copy number in the Raji Burkitt lymphoma cell line; experiment: Raji EBV genome copy number assay; format: cell-based, Epstein-Barr virus; settings: six days, Raji cells, real time PCR EBV DNA (DS) relative to actin
Procedure: To further evaluate the ability of these compounds to inhibit the EBNA1 function required for EBV genome replication, we assayed their effect on EBV genome copy number in the Raji Burkitt lymphoma cell line (Fig. 5). Raji cells typically contain ∼100 copies of the EBV genome per cell. […] Therefore, we assessed the effects of HU, SC7, SC11, and SC19 on EBV copy number in Raji cells. Cells were treated with 10 µM SC7, SC11, SC19 or with 100 µM HU for six days. The EBV genome copy number was determined by real time PCR for EBV DNA (DS) relative to cellular actin DNA.
Raji cells (purchased from ATCC) were grown at 5×10^6 cells/ml in RPMI media supplemented with 10% FBS and 10 mM Streptomycin and 10 mm Penicillin. Test compounds were added to achieve a final concentration of 10 uM. Cells were grown at 37°C for three days and then passaged 1∶10 into fresh media with the same concentration of drug. After a second 3-day incubation cells were harvested and the DNA was isolated using ChIP Lysis Buffer followed by sonication, phenol∶chloroform extraction, and ethanol precipitation. Relative EBV DNA copy number was quantified by real-time PCR with primers for cellular actin and the EBV dyad-symmetry region, as described previously.

[2] = target: T1, EBNA1 DNA binding domain (DBD) (Epstein-Barr virus, UniProt P03211); experiment: Fluorescence polarization (FP) assay of EBNA1-DNA binding
T1 construct: 246 nM EBNA1 DBD (aa 459–607); hexa-histidine (N); made in house; host or cells: E. coli
Procedure: (§1) The EBNA1 DNA binding domain (DBD) (aa 454–607) with a hexa-histidine amino-terminal fusion protein was expressed in E. coli and purified over Ni-NTA agarose according to manufacturers recommendations (Qiagen). The protein was purified from four liters of E. coli to generate ∼20 mg of highly purified EBNA1 protein, estimated to be >90% pure. Purified protein was then dialyzed into a buffer consisting of 200 mM NaCl, 20 mM, Tris-HCl pH 7.4 and 20% Glycerol. Hexa-His tagged Zta was purified from E. coli to near homogeneity, similar to EBNA1 protein. Purified Zta was dialyzed into 500 mM NaCl, Tris-HCl pH 7.4 and 20% Glycerol.
(§2) A reaction mix containing 200 mM NaCl, 20 mM Tris-Cl pH 7.4, 1 mM DTT, 10 ug/mL BSA, 10 nM Cy5 5′ modified EBNA1 (Cy5-GGGTAGCATATGCTATCTagatagcatatgctaccc) or ZTA (Cy5-CACTGACTCATTaatgagtcagtg binding site) oligonucleotide hairpins (purchased from IDT) and 246 nM EBNA1 DBD (aa 459–607) or 300 nM ZTA full length purified recombinant protein was incubated for 20 minutes at room temperature prior to dispensing (BioTek MicroFlo Select) 30 uL to each well of a 384 well black opaque microtiter plate containing the test compounds. Test plates were centrifuged at 165×g prior to fluoresence polarizaration measurements in an Envision Xciter multilable plate reader (Perkin Elmer) using a Cy5 FP 620 excitation and Cy5 FP P/S-pol 688 emission filters.
(§3) To determine IC50s, an 11- point series of 2-fold dilutions in DMSO was performed in duplicate starting at an initial concentration of 50 mM using a Janus Verispan (Perkin Elmer) to create a master plate. From this master plate 0.5 uL was transfered to black opaque 384 well Optiplate (Perkin Elmer) using a Janus MDT (Perkin Elmer) or to microfuge tubes by hand. The plate or microfuge tubes were assayed using the FP and EMSA protocols described above. […] The data was calculated as percentage of EBNA1 binding activity and then plotted versus the log of the concentration of inhibitor. Using GraphPad Prism 5.0 software the plotted data was fit with a Hill-Slope dose-response curve to calculate the relative IC50.

[3] = target: T2, Zta (Epstein-Barr virus, UniProt P03206); experiment: Fluorescence polarization (FP) assay of Zta-DNA binding (specificity control); settings: for IC50: inhibitor 833 to 7 µM, 2-fold dilutions, 300 nM Zta, read-out: IC50, inhibition of Zta-DNA binding (FP, Fig. 3 panel B)
T2 construct: 300 nM ZTA full length purified recombinant protein; Hexa-His; made in house; host or cells: E. coli
Procedure: as §1, §2, §3

[4] = target: T2, Zta; experiment: EMSA of Zta-DNA binding (specificity control)
Procedure: (§4) An EMSA reaction buffer was prepared containing 20% Glycerol, 200 mM NaCl, 20 mM Tris-Cl pH 7.4, 1 mM DTT, 10 ug/mL BSA, 10 nM Cy5 oligonucleotide probe and with or without 246 nM EBNA1 DBD or 300 nM Zta full length purified recombinant protein. This solution was incubated for 20 minutes at room temperature to ensure binding. 30 uL of this solution was dispensed to eppendorf tubes containing 0.5 uL of a test compound in DMSO and mixed. Samples were then loaded onto a 6% polyacrylamide gel in 1/2X Tris-Borate buffer and electrophoresed for 90 min at 170 V. The gel was then scanned for flouresence using at Typhoon Imager (GE Healthcare).
as §3

[5] = test system: EBNA1 transcription activation of Cp; experiment: EBNA1 transcription activation assay (OriP-Cp-Luciferase reporter) in HEK293T cells; format: cell-based, Epstein-Barr virus; settings: 5 µM compound, 48 hrs, transfected HEK293T cells
Procedure: (§5) SC7, SC11, and SC19 were assayed for their ability to inhibit EBNA1 in two cell-based assays. Transcription activation of the EBV Cp promoter by EBNA1 is known to be essential for B-cell immortalization. We therefore assayed the effect of compounds to inhibit EBNA1 transcription activation of Cp using a luciferase reporter-based assay in transiently transfected HEK293T cells (Fig. 4). The luciferase reporter plasmid consisted of a ∼2 kb region of EBV containing both OriP and Cp fused upstream of the luciferase gene. Cotransfection of this plasmid with an EBNA1 expression plasmid produced a 4–5 fold increase in luciferase activity relative to control expression vector lacking EBNA1 (data not shown). Incubation of transfected cells with control vehicle DMSO had no effect on EBNA1 transcription activation. […] As a control for specificity, the same compounds were assayed for their inhibition of Zta transcription activation. Zta is a potent transcription activator of the EBV BHLF1 promoter. We therefore assayed these compounds for their effect on Zta transactivation of BHLF1 promoter fused to luciferase reporter gene.
(§6) HEK293T cells (purchased from ATCC) were seeded in 24-well plates at a density of 50,000 cells/well in DMEM media with 10% FBS. Following an 18 hr incubation at 37°C, cells were transfected using 2 µl of lipofectamine with 0.4 ug/well of a pCMV-FLAG-EBNA1, pCMV-FLAG-ZTA (N362) or a control pCMV-FLAG vector and 0.2 ug/well of either a Cp-Luciferase (EBNA1-reporter) or a HP-Luciferase (Zta-reporter) plasmid. All samples were cotransfected with 100 ng of Renilla expression vector as an internal control for transfection efficiency. After 6 hrs the transfection media was replaced and test compounds were added to achieve a final concentration of 5 uM. Cells were incubated at 37°C for 48 hrs and then harvested. Cells were lysed and prepared for analysis using the Promega Dual Reporter system and luminescence was measured using a Perkin Elmer Wallac Victor^2 1420 Multilabel reader.

[6] = test system: Zta transactivation of BHLF1 promoter; experiment: Zta transcription activation assay (BHLF1-Luciferase reporter) in HEK293T cells; format: cell-based, Epstein-Barr virus; settings: for inhibition at 5 µM: human gammaherpesvirus 4, HEK-293T, 48 h, read-out: Inhibition of Zta transactivation
Procedure: as §5, §6

[7] = target: T1, EBNA1 DNA binding domain (DBD); experiment: EMSA of EBNA1-DNA binding; settings: Fig. 3
Procedure: as §4, §3

[8] = inhibitor 833 to 7 µM, 2-fold dilutions, 246 nM EBNA1 DBD, read-out: IC50, inhibition of EBNA1-DNA binding (FP, Fig. 3 panel A)
[9] = purified EBNA1 DBD, Cy5 DNA hairpin, read-out: IC50, inhibition of EBNA1-DNA binding in FP assay

T1 sequence (P03211 459-607): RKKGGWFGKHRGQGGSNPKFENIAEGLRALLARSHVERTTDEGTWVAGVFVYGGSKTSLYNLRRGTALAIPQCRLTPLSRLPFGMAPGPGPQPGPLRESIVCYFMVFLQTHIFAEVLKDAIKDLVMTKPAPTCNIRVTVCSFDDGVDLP
T2 sequence (P03206 whole entry): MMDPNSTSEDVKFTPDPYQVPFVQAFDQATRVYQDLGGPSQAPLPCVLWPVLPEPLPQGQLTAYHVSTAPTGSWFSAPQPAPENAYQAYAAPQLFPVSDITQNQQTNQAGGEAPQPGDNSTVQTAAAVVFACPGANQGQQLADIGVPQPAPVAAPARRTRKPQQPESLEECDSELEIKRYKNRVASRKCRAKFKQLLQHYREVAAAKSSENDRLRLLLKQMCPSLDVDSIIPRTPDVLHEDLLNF

Row | Compound | Reduction in EBV genome copy number ([1]; 100 µM HU) [%] | IC50 [2, 8] [µM] | IC50 [2, 9] | Inhibition of Zta-DNA binding in FP assay [3] | IC50 [3] [µM] | Inhibition of Zta-DNA binding in EMSA [4] | Inhibition of EBNA1 transcription activation [5] | Inhibition of Zta transactivation ([6]; 5 µM compound, 48 hrs, transfected HEK293T cells) | Reduction in EBV genome copy number ([1]; 10 µM compound) | inhibition at 5 µM [6] [%] | IC50, inhibition of EBNA1-DNA binding in FP assay ([2]; purified EBNA1 DBD, Cy5 DNA hairpin) | Inhibition of EBNA1-DNA binding in EMSA [7]
1 | NC(=O)NO [HU, hydroxyurea, reference compound] | ~50 | – | – | – | – | – | – | – | – | – | – | –
2 | N#CCc1ccc(NC(=O)c2cc(Cl)ccc2NS(=O)(=O)c2cccc3nsnc23)cc1 [SC19] | – | 49.1 | 20 to 100 µM and 49 µM | no significant inhibition | ~211 | no significant inhibition | completely blocked | no detectable inhibitory effect | 75–90% | – | – | –
3 | CC(=O)Oc1ccc(N(C(C)=O)S(=O)(=O)c2ccc3ccccc3c2)cc1Br [SC7] | – | 23.7 | 20 to 100 µM and 23 µM | no significant inhibition | 300 | no significant inhibition | completely blocked | – | no apparent effect | ~60 | – | –
4 | CC(=O)Nc1ccc(S(=O)(=O)N2c3ccccc3C(C)=CC2(C)C)cc1 [SC11] | – | 92.2 | 20 to 100 µM | no significant inhibition | 406 | no significant inhibition | completely blocked | – | 75–90% | ~60 | – | –
5 | CC1CCc2c(sc3nc(SCc4ccc5c(c4)OCO5)nc(N)c23)C1 (centres unmarked) [SC27] | – | 546 | – | – | 193 | – | – | – | – | – | did not perform well in the FP assay | highly specific inhibition of EBNA1
